Experimental data reported in PubChem BioAssay (NCI).
Several values for one entry are separate records, joined by “and”; a condition that tells them apart may be missing. Identical values can stand only once.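 Cultured in 96-well plates, cells were exposed to test compound for 48 hours across five concentrations. GI50 marks 50% less growth. TGI denotes the concentration required for complete inhibition of growth.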

Legend:
Test in all cases: NCI tumour cell line growth inhibition, 48 h
HOP-18 NSCLC = system: HOP-18 NSCLC
SN12C renal = system: SN12C renal
EKVX NSCLC = system: EKVX NSCLC
SF-539 CNS = system: SF-539 CNS
MDA-MB-435 = system: MDA-MB-435
SNB-78 CNS = system: SNB-78 CNS
NCI-H460 lung = system: NCI-H460 lung
BT-549 breast = system: BT-549 breast
M19-MEL melanoma = system: M19-MEL melanoma
XF 498 CNS = system: XF 498 CNS
DMS 273 small cell lung = system: DMS 273 small cell lung
MDA-N = system: MDA-N
DMS 114 small cell lung = system: DMS 114 small cell lung
LXFL 529 NSCLC = system: LXFL 529 NSCLC
SF-295 CNS = system: SF-295 CNS
DLD-1 colon = system: DLD-1 colon
KM20L2 colon = system: KM20L2 colon

Row | SMILES | TGI (HOP-18 NSCLC) [µM] | TGI (SN12C renal) [µM] | TGI (EKVX NSCLC) [µM] | TGI (SF-539 CNS) [µM] | TGI (MDA-MB-435) [µM] | TGI (SNB-78 CNS) [µM] | TGI (NCI-H460 lung) [µM] | TGI (BT-549 breast) [µM] | TGI (M19-MEL melanoma) [µM] | TGI (XF 498 CNS) [µM] | TGI (DMS 273 small cell lung) [µM] | TGI (MDA-N) | TGI (DMS 114 small cell lung) [µM] | TGI (LXFL 529 NSCLC) [µM] | TGI (SF-295 CNS) [µM] | TGI (DLD-1 colon) [µM] | TGI (KM20L2 colon) [µM] | GI50 (MDA-MB-435) | GI50 (MDA-N)
1 | c1ccc(SCCP(CCP(c2ccccc2)c2ccccc2)c2ccccc2)cc1 (configuration not stated) | 14 | > 88.6 | > 67.5 | > 100 | > 100 | > 100 | > 100 | 68.7 | > 100 | 8.15 | 13.6 | > 100 µM | 33.2 | 23.3 | > 100 | > 100 |  |  | 
2 | COC(=O)C(=O)C(C(=O)C(=O)Nc1ccc([N+](=O)[O-])cc1C#N)c1nc2ccc([N+](=O)[O-])cc2[nH]c1=O (configuration not stated) | > 100 | > 100 | > 100 | > 100 |  | > 100 | > 100 |  | > 100 |  | > 100 |  | > 100 | > 100 | > 100 | > 100 | > 100 |  | 
3 | COc1cc2c(cc1OC)[C@]1(O)C(=O)c3ccc4c(c3O[C@@H]1CO2)C[C@H](C(C)(C)O)O4 |  |  | > 100 | > 100 |  | > 100 | > 100 |  | > 100 | > 100 | > 100 |  | > 100 | > 100 |  | > 100 | > 100 |  | 
4 | COc1ccc(Oc2nc3cc(C(F)(F)F)ccc3nc2C(C)C)cc1 |  | 59.7 | 50.1 | > 100 | > 100 |  | 68.8 | 65.8 |  |  |  | > 100 µM |  |  | 51 |  |  |  | 
5 | C1CSCCSS[C@@H]2CCCCC2SC1 (some centres not stated) |  | > 100 | > 100 | > 100 | > 100 |  | > 100 | > 100 |  |  |  | > 100 µM |  |  | > 100 |  |  |  | 
6 | c1csc(-c2cc(-c3ccsc3)c(-c3cccs3)s2)c1 |  | > 100 | > 100 | > 100 | > 100 |  | > 100 | > 100 |  |  |  | > 100 µM |  |  | > 100 |  |  |  | 
7 | O=C(/C=C/c1ccc(O)c(O)c1)Oc1ccccc1 |  | 48.7 | > 72.9 | 88.5 | > 74.2 |  | 51 | 53.6 |  |  |  | > 81 µM |  |  | 61.4 |  |  |  | 
8 | COC(=O)C1=C(C(=O)OC)C2(/N=C(\Nc3ccccc3)c3ccccc3)N(c3ccc(OC)cc3)CC(c3ccccc3)N2O1 (configuration not stated) |  | > 100 | > 100 | > 100 | > 100 |  | > 100 | > 100 |  |  |  | > 100 µM |  |  | > 100 |  |  |  | 
9 | O=C1C=CC(=O)c2c(O)c(Nc3ccc(OC(F)(F)F)cc3)c(Cl)c(O)c21 |  | 1.17 | 2.17 | 3.36 | 2.17 |  | 3.6 | 3.12 |  |  |  | 5.2 µM |  |  | 4.62 |  |  |  | 
10 | CC(=O)C1CC2(c3ccccc3)C(=O)c3ccccc3N2O1 (configuration not stated) | > 100 | > 100 | > 100 | > 100 |  | > 100 |  |  | > 100 | > 100 | > 100 |  | > 100 | > 100 | > 100 | > 100 | > 100 |  | 
11 | O=C1c2ccccc2N2OC3C4CCC(C4)C3C12c1ccccc1 (configuration not stated) | > 100 | > 100 | > 100 | > 100 |  |  |  |  | > 100 |  | > 100 |  | > 100 | > 100 | > 100 | > 100 | > 100 |  | 
12 | O=C1CC(CC(O)C(O)CO)CC(=O)N1 (configuration not stated) |  | > 100 | > 100 | > 100 | > 100 |  | > 100 | > 100 |  |  |  | > 100 µM |  |  | > 100 |  |  |  | 
13 | COC(=O)c1ccccc1C1CN=NC12Cc1c(C)c3c(c(C)c1C2=O)CCC3 (configuration not stated) |  | > 100 | > 100 | > 100 | > 100 |  | > 100 | > 100 |  |  |  | > 100 µM |  |  | > 100 |  |  |  | 
14 | O=C(CN1CCOCC1)NC1=Nc2ncccc2C(=O)NN1 |  | > 10 | > 10 | > 10 | > 10 |  | > 10 | > 10 |  |  |  | > 10 µM |  |  | > 10 |  |  |  | 
15 | CNC(=S)N/N=C(\C)c1ccc(OC)cc1O |  | > 100 | > 100 | > 100 | > 100 |  | > 100 | > 100 |  |  |  | > 100 µM |  |  | > 100 |  |  |  | 
16 | COc1ccccc1OCc1nnc(SCC(=O)O)n1-c1ccccc1 |  | > 100 | > 100 | > 100 |  | > 100 | > 100 |  |  | > 100 | > 100 |  | > 100 | > 100 | > 100 | > 100 | > 100 |  | 

Row | SMILES | TGI (HOP-18 NSCLC) [µM] | TGI (SN12C renal) [µM] | TGI (EKVX NSCLC) [µM] | TGI (SF-539 CNS) [µM] | TGI (MDA-MB-435) [µM] | TGI (SNB-78 CNS) [µM] | TGI (NCI-H460 lung) [µM] | TGI (BT-549 breast) [µM] | TGI (M19-MEL melanoma) [µM] | TGI (XF 498 CNS) [µM] | TGI (DMS 273 small cell lung) [µM] | TGI (MDA-N) | TGI (DMS 114 small cell lung) [µM] | TGI (LXFL 529 NSCLC) [µM] | TGI (SF-295 CNS) [µM] | TGI (DLD-1 colon) [µM] | TGI (KM20L2 colon) [µM] | GI50 (MDA-MB-435) | GI50 (MDA-N)
17 | c1ccc(N=C2SC(c3ccccc3)CN2C23CC4CC(CC(C4)C2)C3)cc1 (configuration not stated) |  | > 100 | > 100 | > 100 | > 100 |  | > 100 | > 100 |  |  |  | > 100 µM |  |  | > 100 |  |  |  | 
18 | S=C(NNC1=NCCCCN1)Nc1ccccc1 |  | > 100 | > 100 | > 100 | > 100 |  | > 100 | > 100 |  |  |  | > 100 µM |  |  | > 100 |  |  |  | 
19 | CN(C)CCCNC(=O)c1cc(NC(=O)CCCn2c3ccccc3c3ccccc32)cn1C |  | > 100 | 92 | > 100 | > 100 |  | > 100 | > 100 |  |  |  | > 100 µM |  |  | > 100 |  |  |  | 
20 | Cc1nc(SCC(=O)Nc2ccccc2)c2sc(=S)n(-c3ccccc3)c2n1 |  | > 10 | > 10 | > 10 | > 10 |  | > 10 | > 10 |  |  |  | > 10 µM |  |  | > 10 |  |  |  | 
21 | CC(=O)OCC1OC(Sc2nc(-c3ccc(C)cc3)c(C#N)c(=O)n2C2OC(COC(C)=O)C(OC(C)=O)C(OC(C)=O)C2OC(C)=O)C(OC(C)=O)C(OC(C)=O)C1OC(C)=O (configuration not stated) |  | > 100 | > 100 | > 100 | > 100 |  | > 100 | > 100 |  |  |  | > 100 µM and 64.6 µM |  |  | > 100 |  |  | > 100 µM and 34.7 µM | > 100 µM and 10.1 µM
22 | CN(C)CC1CCC(CN(C)C)C1=NO (configuration not stated) | > 100 | > 100 | > 100 | > 100 |  | > 100 | > 10 |  | > 100 |  | > 100 |  | > 100 | > 100 | > 10 | > 100 | > 100 |  | 
23 | COc1ccc(C(=O)N=C2N(c3ccccc3)C(=Nc3ccccc3)C(=Nc3ccccc3)N2c2ccccc2)cc1 |  | > 100 | > 100 | > 100 | > 100 |  | > 100 | > 58.2 |  |  |  | > 100 µM |  |  | > 100 |  |  |  | 
24 | CCOC(=O)c1c2ccccc2n2c(=O)n(C)nnc12 |  | > 100 | > 100 | > 100 | > 100 |  | > 100 | > 100 |  |  |  | > 100 µM |  |  | > 100 |  |  |  | 
25 | OC(CCN1CCN(CCOC(c2ccc(F)cc2)c2ccc(F)cc2)CC1)c1ccccc1 (configuration not stated) |  | 29.4 | 26.1 | 25.6 | 38.9 |  | 35.4 | 27.1 |  |  |  | 28.5 µM |  |  | 34.6 |  |  |  | 
26 | COC(=O)C1=C(O)C(C(=O)OC)[C@@]2(O)[C@@H](C(=O)OC)C(c3ccc(OC(=O)/C(=C/c4ccccc4)c4ccccc4)cc3)C[C@@H]1[C@@H]2C(=O)OC (some centres not stated) |  | > 100 | > 100 | 8.44 | > 100 |  | > 100 | > 100 |  |  |  | 87.7 µM |  |  | > 100 |  |  |  | 
27 | COc1ccc(-c2c(N)n(-c3cc(OC)cc(OC)c3)c(=O)c3cc([N+](=O)[O-])ccc23)cc1 |  | > 100 | > 100 | > 100 | > 100 |  | > 100 | > 93.6 |  |  |  | > 100 µM |  |  | > 100 |  |  |  | 
28 | CC1=CC(=O)c2cccc(O)c2C1=O | 3.07 | 5.11 | 8.68 | 12.3 | 3.28 | > 62.4 | 18.9 | 3.13 | 4.05 | 3.2 | 5.01 | 3.34 µM | 7.89 | 3.06 | 27.7 |  | 41.6 |  | 
29 | C/C(CC(=O)Nc1ccc(C)cc1)=N\NC(N)=S |  |  | > 100 | > 100 |  | > 100 | > 100 |  | > 100 | > 100 |  |  | > 100 | > 100 | > 100 | > 100 | > 100 |  | 
30 | Cc1occc1C(=S)Nc1ccc(Cl)c(C(=O)OCC2CC2)c1 |  | > 100 | > 100 | > 100 | > 100 |  | > 100 | 81.5 |  |  |  | > 100 µM |  |  | > 100 |  |  |  | 
31 | N#CC1(C#N)C(c2ccccc2)NC23CCCCC2C1(C#N)C(=O)N3 (configuration not stated) |  | > 100 | > 100 | > 100 | > 100 |  | > 100 | > 100 |  |  |  | > 100 µM |  |  | > 100 |  |  |  | 
32 | Fc1ccc(C(OCCN2CC3CC2CN3CCCc2ccccc2)c2ccc(F)cc2)cc1 (configuration not stated) |  | 22.1 | 18.5 | 5.12 | 20.5 |  | 17.3 | 24 |  |  |  | 19 µM |  |  | 20.9 |  |  |  | 
